Test results: PubChem BioAssay (NCI)
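Five compound concentrations were applied to cells in 96-well plates for 48 hours; endpoints were derived by simple linear interpolation of the resulting dose-response curve. TGI: total growth inhibition.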 Where a SMILES comes first, the peptide text is derived from it. The star is where a group is joined. Boc = CC(C)(C)OC(=O)*

Columns and labels:
Experiment in all cases: NCI tumour cell line growth inhibition, 48 h
SR leukemia = test system: SR leukemia
SNB-19 CNS = test system: SNB-19 CNS
SNB-75 CNS = test system: SNB-75 CNS
M14 melanoma = test system: M14 melanoma
MDA-N = test system: MDA-N
MCF7 breast = test system: MCF7 breast
BT-549 breast = test system: BT-549 breast
HCC-2998 colon = test system: HCC-2998 colon
HOP-92 NSCLC = test system: HOP-92 NSCLC
NCI-H522 lung = test system: NCI-H522 lung

Structure (SMILES)	TGI (SR leukemia) [µM]	TGI (SNB-19 CNS) [µM]	TGI (SNB-75 CNS) [µM]	TGI (M14 melanoma) [µM]	TGI (MDA-N) [µM]	TGI (MCF7 breast) [µM]	TGI (BT-549 breast) [µM]	TGI (HCC-2998 colon) [µM]	TGI (HOP-92 NSCLC) [µM]	TGI (NCI-H522 lung) [µM]
S=C(c1c[nH]c2ccccc12)N1CCN(c2ccccc2)CC1	> 100	> 100	21.6	> 100	> 100	> 100	> 100	–	–	–
N#C[C@@]12CCCC(=O)[C@@H]1[C@H]1CCC[C@H]12	59.5	42.4	36	30.2	38.4	49.8	39.2	31.7	38	–
CCOCC(NC(=O)C(CC(C)C)NC(=O)OC(C)(C)C)C(N)=O (stereo not drawn) (Boc-Leu-Ser(Et)-NH2; configuration not given here)	–	> 100	> 100	> 100	> 100	> 100	> 100	–	> 100	> 100
CC(=O)c1c(-c2ccccc2)c(-c2ccc(OCCN(C)C)cc2)n2ccccc12	–	40.4	27.9	30.8	29.2	32.3	30.3	27.7	23.1	27.9
CC(C)(C)OC(=O)Nc1cc(-c2ccccc2)co1	–	> 100	–	> 100	> 100	> 100	> 100	> 100	86.8	69.1
CN[C@@H](C)[C@H](OP(=O)(O)OC1[C@@H](O)[C@H](O)C(O)[C@H](O)[C@@H]1O)c1ccccc1 (some centres not stated)	–	> 100	> 100	> 100	> 100	> 100	> 100	> 100	> 100	> 100
O=C(N/N=C\c1ccc([N+](=O)[O-])cc1)c1ccccc1Nc1ccccc1C(=O)N/N=C/c1ccc([N+](=O)[O-])cc1	> 100	> 100	> 100	79.7	> 100	> 100	> 100	> 100	> 100	–
CCCC#CC(O)(C(=O)OC1CCN(C)CC1)C1CCCCC1 (configuration not stated)	> 100	> 100	> 100	> 100	> 100	> 100	> 100	> 100	> 100	–
O=C1/C(=C/c2cccs2)NC(=S)N1CN1CCOCC1	> 100	> 100	> 100	> 100	> 100	> 100	–	–	> 100	–
NC12CC3CC4C1CC1CC2C(C3)C4(N)C1	–	> 100	–	> 100	> 100	> 100	> 100	–	> 100	> 100
CN(C)CCNC1=CC(=O)c2c(O)ccc(O)c2C1=O	–	31.6	31.9	12.4	3.55	7.27	31	13.5	27.8	9.85
O=C(/C=C\Nc1ccccc1O)C(Cl)(Cl)Cl	–	> 100	> 100	> 100	59.2	64.5	> 100	52.6	> 100	65
CCOC(=O)c1cc(=O)oc2c1N(C)c1ncccc1N2	> 100	> 100	> 100	> 100	> 100	> 100	> 100	> 100	–	–
CC(=O)NNC(=S)/N=C/c1c(O)cc(C)oc1=O	–	> 100	> 100	> 100	> 100	> 100	> 100	> 100	> 100	–
COc1ccc2c(c1)CCCN1CCc3cc(OC)c(OC)cc3C21 (configuration not stated)	> 100	> 100	> 100	> 100	> 100	> 100	43.2	> 100	–	–
Cn1c2ccccc2n2c(=O)c3cccnc3c(C#N)c12	–	–	> 100	–	> 100	–	> 100	–	> 100	> 100
COc1ccccc1N=N/C(=N/NC(=O)c1ccc(C)cc1)c1ccc(N(CCC#N)CCC#N)cc1OC	–	> 100	–	> 100	53.5	63.1	97.4	> 100	95.1	79
O=c1c(-c2ccccc2Cl)coc2cc(F)ccc12	–	> 100	54.5	55.6	25	> 100	48.5	–	87.1	36.5
Cc1ccc2cccc3c2c1CC1(C3=O)S(=O)(=O)OCCOS1(=O)=O	–	> 100	> 100	> 100	> 100	> 100	> 100	> 100	> 100	> 100
OCCN=C1c2ccccc2C2C(c3ccccc31)C1c3ccccc3C(=NCCO)c3ccccc3C21 (configuration not stated)	28.9	41.4	65.9	42.3	31.3	60	52.3	40.5	–	–
Clc1ccc2c(NCCNc3ccnc4cc(Cl)ccc34)ccnc2c1	–	50.2	50.3	31.2	31.6	36	36.8	28.5	38.5	35.2
CC(NC(=O)C(N)CC(=O)O)NC(=O)N1CCOCC1 (configuration not stated)	–	> 100	> 100	> 100	> 100	> 100	> 100	–	–	> 100
CC(C)CC1[C@@H](OCc2ccccc2)COS(=O)(=O)N1Cc1ccccc1 (some centres not stated)	–	> 100	> 100	> 100	–	> 100	> 100	–	> 100	> 100
COc1ccc(CCc2ccc(O)c(C(=O)O)c2)cc1OC	> 100	> 100	> 100	> 100	> 100	> 100	–	> 100	> 100	> 100
O=S(=O)(O)c1ccc2c(N=Nc3ccccc3Cl)c(O)ccc2c1	> 100	> 100	> 100	> 100	> 100	–	> 100	–	> 100	> 100
